Test results from patent US20250195521A1 (Revolution Medicines, Inc., priority 2020, published 2025).

Experiments:
[1] = tested on: NCI-H358 cells (K-Ras G12C); test: CellTiter-Glo cell viability, NCI-H358; assay type: cell-based, human; conditions: Homo sapiens, NCI-H358, 120 h, K-Ras G12C, 5-day treatment; read-out: H358 Cell Viability IC50
Procedure, shortened: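 Compounds were dispensed directly onto seeded cells and incubated until day 5, then plates were equilibrated at room temperature for about 30 min before CellTiter-Glo luminescence readout. Signals were normalized as (sample/average DMSO)×100 and fitted with a four-parameter logistic model.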

KRAS G12C = KRAS G12C (Homo sapiens (Human), UniProt P01116+P62937, G12C); test: Ras-Raf disruption/FRET/MOA assay (BRAF RBD, Cyclophilin A); assay type: biochemical; conditions: read-out: KRAS G12C FRET IC50
Procedure, shortened: (§1)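 Ras-GMPPNP (12.5 nM), BRAF RBD (50 nM) and 25 μM Cyclophilin A were incubated with compound for 3 h at 25° C, then detected 1.5 h with anti-His Eu and anti-GST APC; IC50 values follow from the reduced TR-FRET ratio.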

KRAS G12D = KRAS G12D (Homo sapiens (Human), UniProt P01116+P62937, G12D); test: as above; assay type: biochemical; conditions: read-out: KRAS G12D FRET IC50
Procedure, shortened: as §1

KRAS G12S = KRAS G12S (Homo sapiens (Human), UniProt P01116+P62937, G12S); test: as above; assay type: biochemical; conditions: read-out: KRAS G12S FRET IC50
Procedure, shortened: as §1

KRAS G12V = KRAS G12V (Homo sapiens (Human), UniProt P01116+P62937, G12V); test: as above; assay type: biochemical; conditions: read-out: KRAS G12V FRET IC50
Procedure, shortened: as §1

KRAS G13C = KRAS G13C (Homo sapiens (Human), UniProt P01116+P62937, G13C); test: as above; assay type: biochemical; conditions: read-out: KRAS G13C FRET IC50
Procedure, shortened: as §1

KRAS G13D = KRAS G13D (Homo sapiens (Human), UniProt P01116+P62937, G13D); test: as above; assay type: biochemical; conditions: read-out: KRAS G13D FRET data IC50
Procedure, shortened: as §1

KRAS Q61H = KRAS Q61H (Homo sapiens (Human), UniProt P01116+P62937, Q61H); test: as above; assay type: biochemical
Procedure, shortened: as §1

KRAS WT = KRAS WT (Homo sapiens (Human), UniProt P01116+P62937); test: as above; assay type: biochemical; conditions: read-out: KRAS WT FRET data IC50
Procedure, shortened: as §1

NRAS G12C = NRAS G12C (Homo sapiens (Human), UniProt P01111+P62937, G12C); test: as above; assay type: biochemical; conditions: read-out: NRAS G12C FRET data IC50
Procedure, shortened: (§2)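 TR-FRET readout: anti-His Eu-W1024 (10 nM) and anti-GST allophycocyanin (50 nM) added after 3 h, 25° C compound incubation, then 1.5 h more. Decrease in FRET ratio versus DMSO wells marks Ras:RAF disruption; IC50 reported.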

NRAS Q61K = NRAS Q61K (Homo sapiens (Human), UniProt P01111+P62937, Q61K); test: as above; assay type: biochemical
Procedure, shortened: as §2

NRAS Q61R = NRAS Q61R (Homo sapiens (Human), UniProt P01111+P62937, Q61R); test: as above; assay type: biochemical
Procedure, shortened: as §2

NRAS WT = NRAS WT (Homo sapiens (Human), UniProt P01111+P62937); test: as above; assay type: biochemical
Procedure, shortened: as §2

NCI-H358 (K-Ras G12C) = test: CellTiter-Glo cell viability assay, NCI-H358; assay type: cell-based, human; conditions: Homo sapiens, NCI-H358, 120 h, 5-day treatment; read-out: H358 Cell Viability assay data (K-Ras G12C, IC50)
Procedure, shortened: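 NCI-H358 cells were treated with test compounds dispensed directly into the assay wells and incubated until day 5. Viability was then read by CellTiter-Glo luminescence after a ~30 min room-temperature equilibration, normalized to the DMSO average (×100), and fit with a four-parameter logistic curve.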

NRAS WT, sequence (P01111 whole entry): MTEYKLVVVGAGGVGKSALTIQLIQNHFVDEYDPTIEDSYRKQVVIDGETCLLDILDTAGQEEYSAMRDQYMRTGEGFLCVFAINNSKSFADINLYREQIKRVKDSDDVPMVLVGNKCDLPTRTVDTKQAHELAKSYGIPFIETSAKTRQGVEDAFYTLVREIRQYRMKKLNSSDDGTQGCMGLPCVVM
NRAS WT, sequence (P62937 whole entry): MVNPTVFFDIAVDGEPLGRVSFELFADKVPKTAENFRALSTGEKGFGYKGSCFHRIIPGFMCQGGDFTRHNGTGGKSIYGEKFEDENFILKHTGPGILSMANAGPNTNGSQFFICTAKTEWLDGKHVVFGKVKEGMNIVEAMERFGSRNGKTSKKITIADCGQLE
KRAS G13D, sequence (P01116 other isoform, or with tags, fused parts or gaps G13D): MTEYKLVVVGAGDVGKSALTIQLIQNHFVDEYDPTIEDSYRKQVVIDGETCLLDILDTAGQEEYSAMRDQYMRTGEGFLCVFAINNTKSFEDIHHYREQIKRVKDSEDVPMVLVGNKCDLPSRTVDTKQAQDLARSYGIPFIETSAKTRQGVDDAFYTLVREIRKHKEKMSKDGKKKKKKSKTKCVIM
KRAS G13D, sequence (P62937 whole entry): as the sequence (P62937 whole entry) above
KRAS G12C, sequence (P01116-2 other isoform, or with tags, fused parts or gaps G12C): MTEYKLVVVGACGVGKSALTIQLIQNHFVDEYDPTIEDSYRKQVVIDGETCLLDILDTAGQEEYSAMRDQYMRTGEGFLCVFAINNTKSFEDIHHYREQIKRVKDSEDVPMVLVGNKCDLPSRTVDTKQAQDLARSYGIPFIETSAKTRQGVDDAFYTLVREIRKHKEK
KRAS G12C, sequence (P62937 whole entry): as the sequence (P62937 whole entry) above
KRAS Q61H, sequence (P01116 other isoform, or with tags, fused parts or gaps Q61H): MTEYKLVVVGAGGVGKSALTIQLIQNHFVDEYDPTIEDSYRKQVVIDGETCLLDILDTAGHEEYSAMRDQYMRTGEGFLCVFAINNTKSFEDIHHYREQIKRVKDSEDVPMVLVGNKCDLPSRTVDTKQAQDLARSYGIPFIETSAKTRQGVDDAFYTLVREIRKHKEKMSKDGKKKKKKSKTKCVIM
KRAS Q61H, sequence (P62937 whole entry): as the sequence (P62937 whole entry) above
NRAS Q61K, sequence (P01111 whole entry Q61K): as the sequence (P01111 whole entry) above, with Q61K counted along it
NRAS Q61K, sequence (P62937 whole entry): as the sequence (P62937 whole entry) above
KRAS G13C, sequence (P01116 other isoform, or with tags, fused parts or gaps G13C): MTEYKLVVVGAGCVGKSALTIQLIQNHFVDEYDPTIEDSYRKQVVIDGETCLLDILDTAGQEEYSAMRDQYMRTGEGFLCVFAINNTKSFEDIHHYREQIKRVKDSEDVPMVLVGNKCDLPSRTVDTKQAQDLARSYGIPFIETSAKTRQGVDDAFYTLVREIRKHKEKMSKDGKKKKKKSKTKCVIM
KRAS G13C, sequence (P62937 whole entry): as the sequence (P62937 whole entry) above
KRAS G12V, sequence (P01116 other isoform, or with tags, fused parts or gaps G12V): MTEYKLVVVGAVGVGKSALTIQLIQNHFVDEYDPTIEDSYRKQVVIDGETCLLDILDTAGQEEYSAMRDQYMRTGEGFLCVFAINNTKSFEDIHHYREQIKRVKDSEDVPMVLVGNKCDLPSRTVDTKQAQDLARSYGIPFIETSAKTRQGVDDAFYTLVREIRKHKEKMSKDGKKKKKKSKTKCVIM
KRAS G12V, sequence (P62937 whole entry): as the sequence (P62937 whole entry) above
KRAS WT, sequence (P01116 other isoform, or with tags, fused parts or gaps): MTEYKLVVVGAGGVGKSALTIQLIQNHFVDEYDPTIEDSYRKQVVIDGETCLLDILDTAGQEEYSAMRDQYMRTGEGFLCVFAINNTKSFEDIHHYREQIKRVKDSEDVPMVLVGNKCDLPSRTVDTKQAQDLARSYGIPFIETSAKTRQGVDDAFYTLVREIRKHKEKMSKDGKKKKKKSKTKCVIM
KRAS WT, sequence (P62937 whole entry): as the sequence (P62937 whole entry) above
NRAS Q61R, sequence (P01111 whole entry Q61R): as the sequence (P01111 whole entry) above, with Q61R counted along it
NRAS Q61R, sequence (P62937 whole entry): as the sequence (P62937 whole entry) above
KRAS G12D, sequence (P01116 other isoform, or with tags, fused parts or gaps G12D): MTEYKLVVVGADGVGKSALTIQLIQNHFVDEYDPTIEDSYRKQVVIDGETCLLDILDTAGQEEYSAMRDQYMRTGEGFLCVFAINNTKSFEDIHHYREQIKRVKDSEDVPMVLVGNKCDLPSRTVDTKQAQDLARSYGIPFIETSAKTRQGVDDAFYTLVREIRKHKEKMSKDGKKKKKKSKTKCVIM
KRAS G12D, sequence (P62937 whole entry): as the sequence (P62937 whole entry) above
NRAS G12C, sequence (P01111 whole entry G12C): as the sequence (P01111 whole entry) above, with G12C counted along it
NRAS G12C, sequence (P62937 whole entry): as the sequence (P62937 whole entry) above
KRAS G12S, sequence (P01116 other isoform, or with tags, fused parts or gaps G12S): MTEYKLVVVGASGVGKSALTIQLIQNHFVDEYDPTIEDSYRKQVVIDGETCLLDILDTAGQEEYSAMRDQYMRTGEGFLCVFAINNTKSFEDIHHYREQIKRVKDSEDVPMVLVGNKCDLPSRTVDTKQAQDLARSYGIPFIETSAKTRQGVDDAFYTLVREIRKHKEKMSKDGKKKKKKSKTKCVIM
KRAS G12S, sequence (P62937 whole entry): as the sequence (P62937 whole entry) above

SMILES | IC50 [1] [nM] | IC50 (KRAS G12C) [nM] | IC50 (KRAS G12D) [nM] | IC50 (KRAS G12S) [nM] | IC50 (KRAS G12V) [nM] | IC50 (KRAS G13C) [nM] | IC50 (KRAS G13D) [nM] | IC50 (KRAS Q61H) [nM] | IC50 (KRAS WT) [nM] | IC50 (NRAS G12C) [nM] | IC50 (NRAS Q61K) [nM] | IC50 (NRAS Q61R) [nM] | IC50 (NRAS WT) [nM] | IC50 (NCI-H358 (K-Ras G12C)) [nM]
CCn1c(-c2cccnc2[C@H](C)OC)c2c3cc(ccc31)-c1cccc(c1)C[C@H](NC(=O)[C@H](C(C)C)N(C)C(=O)[C@@H]1OCC[C@@H]1c1ccccc1)C(=O)N1CCC[C@H](N1)C(=O)OCC(C)(C)C2 [Compound A586] | 100 to 1000 | 10 to 100 | 100 to 1000 | 100 to 1000 | 100 to 1000 | 100 to 1000 | 100 to 1000 | 100 to 1000 | 100 to 1000 | 100 to 1000 | 100 to 1000 | 100 to 1000 | 100 to 1000 | –
CCn1c(-c2cccnc2[C@H](C)OC)c2c3cc(ccc31)-c1cccc(c1)C[C@H](NC(=O)[C@H](C(C)C)N(C)C(C)=O)C(=O)N1CCC[C@H](N1)C(=O)OCC(C)(C)C2 [Compound A61] | 1000 to 10000 | 1000 to 10000 | > 10000 | 1000 to 10000 | 1000 to 10000 | 1000 to 10000 | 1000 to 10000 | 100 to 1000 | 1000 to 10000 | 1000 to 10000 | 1000 to 10000 | 1000 to 10000 | 1000 to 10000 | –
CCn1c(-c2cccnc2[C@H](C)OC)c2c3cc(ccc31)-c1csc(n1)C[C@H](NC(=O)[C@H](C(C)C)N(C)C(=O)N1CC[C@@H](F)[C@H](N)C1)C(=O)N1CCC[C@H](N1)C(=O)OCC(C)(C)C2 [Compound A559] | 10 to 100 | 100 to 1000 | 100 to 1000 | 100 to 1000 | 100 to 1000 | 100 to 1000 | 100 to 1000 | 10 to 100 | 100 to 1000 | 10 to 100 | 100 to 1000 | 100 to 1000 | 100 to 1000 | –
CCn1c(-c2cccnc2[C@H](C)OC)c2c3cc(ccc31)-c1csc(n1)C[C@H](NC(=O)[C@H](C(C)C)N(CCc1ccncc1)C1CC1)C(=O)N1CCC[C@H](N1)C(=O)OCC(C)(C)C2 [Compound A556] | 100 to 1000 | 100 to 1000 | 1000 to 10000 | 100 to 1000 | 1000 to 10000 | 100 to 1000 | 1000 to 10000 | 100 to 1000 | 100 to 1000 | 100 to 1000 | 100 to 1000 | 100 to 1000 | 100 to 1000 | –
CCn1c(-c2cccnc2[C@H](C)OC)c2c3cc(ccc31)-c1csc(n1)C[C@H](NC(=O)[C@H](C(C)C)N(C)C(=O)[C@@H]1OCC[C@@H]1c1ccccc1)C(=O)N1CCC[C@H](N1)C(=O)OCC(C)(C)C2 [Compound A585] | 10 to 100 | 100 to 1000 | 1000 to 10000 | 100 to 1000 | 100 to 1000 | 100 to 1000 | 1000 to 10000 | 100 to 1000 | 100 to 1000 | 100 to 1000 | 100 to 1000 | 100 to 1000 | 100 to 1000 | –
CCn1c(-c2cccnc2[C@H](C)OC)c2c3cc(ccc31)-c1cc(O)cc(c1)C[C@H](NC(=O)[C@H](C(C)C)N(C)C(=O)[C@]1(F)CCN(C(=O)OC)C1)C(=O)N1CCC[C@H](N1)C(=O)OCC(C)(C)C2 [Compound A616] | 100 to 1000 | 10 to 100 | 100 to 1000 | 100 to 1000 | 100 to 1000 | 10 to 100 | 100 to 1000 | 10 to 100 | 10 to 100 | 10 to 100 | 100 to 1000 | 100 to 1000 | 100 to 1000 | –
CCn1c(-c2cccnc2[C@H](C)OC)c2c3cc(ccc31)-c1csc(n1)C[C@H](NC(=O)[C@H](C(C)C)N(C)C(=O)N1CC[C@]3(CCNC3=O)C1)C(=O)N1CCC[C@H](N1)C(=O)OCC(C)(C)C2 [Compound A479] | – | 100 to 1000 | 1000 to 10000 | 1000 to 10000 | 1000 to 10000 | 1000 to 10000 | 1000 to 10000 | 100 to 1000 | 1000 to 10000 | 100 to 1000 | 100 to 1000 | 1000 to 10000 | 100 to 1000 | < 10
CCn1c(-c2cccnc2[C@H](C)OC)c2c3cc(ccc31)-c1cc(O)cc(c1)C[C@H](NC(=O)[C@@H]1[C@@H](C)CCCN1C(C)=O)C(=O)N1CCC[C@H](N1)C(=O)OCC(C)(C)C2 [Compound A324] | – | 100 to 1000 | 1000 to 10000 | 100 to 1000 | 100 to 1000 | 10 to 100 | 100 to 1000 | 10 to 100 | 100 to 1000 | 100 to 1000 | 100 to 1000 | 1000 to 10000 | 100 to 1000 | < 10
CCn1c(-c2cccnc2[C@H](C)OC)c2c3cc(ccc31)-c1cc(O)cc(c1)C[C@H](NC(=O)[C@@H]1[C@H]3C[C@H]3CN1C(C)=O)C(=O)N1CCC[C@H](N1)C(=O)OCC(C)(C)C2 [Compound A207] | – | 100 to 1000 | > 10000 | 1000 to 10000 | 1000 to 10000 | 100 to 1000 | 1000 to 10000 | 100 to 1000 | 1000 to 10000 | 1000 to 10000 | 1000 to 10000 | 1000 to 10000 | 1000 to 10000 | 10 to 100
CCn1c(-c2cccnc2[C@H](C)OC)c2c3cc(ccc31)-c1csc(n1)C[C@H](NC(=O)[C@H](C(C)C)N(C)C(=O)N1CC[C@@H]1CN)C(=O)N1CCC[C@H](N1)C(=O)OCC(C)(C)C2 [Compound A558] | – | 10 to 100 | 100 to 1000 | 10 to 100 | 100 to 1000 | 100 to 1000 | 10 to 100 | 10 to 100 | 10 to 100 | 10 to 100 | 100 to 1000 | 100 to 1000 | 10 to 100 | 10 to 100
